Tested on: 695427-040-R-J1-PDC complex spheroid viability
Experiment: Anticancer human tumor 695427-040-R-J1-PDC patient-derived colon adenocarcinoma cell line growth inhibition [RAS]
Conditions: for IC50: curve of first compound; for viability, T/C: stronger effect = lower value
Text: RAS pathway inhibitors in Combinations in Complex Spheroids
A high-throughput screen of multi-cell type tumor spheroids was designed to identify active combinations of RAS pathway inhibitors and targeted small molecules. Complex spheroids include a stromal component modeled by human endothelial cells (HUVEC) and fibroblasts modeled by human mesenchymal stem cells (MSCs). The concentration ranges selected for each drug and investigational agent were based upon clinically achievable concentrations if the clinical Cmax of the agent was known.
Compounds. The drugs and investigational agents: abemaciclib (NSC768073), cobimetinib (NSC768068), divarasib (GDC6063, NSC841802), docetaxel (NSC628503), GDC-1971 (RLY-1971, NSC841576), gemcitabine (NSC613327), inavolisib (NSC800729), ipatasertib (NSC767898), KB-0742 (NSC834161), MRTX-1133 (NSC836407), osimertinib (NSC779217), RMC-4630 (NSC839698), RMC-6236 (NSC851965), RMC-6291 (NSC852671), Ro-3306 (NSC812927), sapanisertib (NSC764658), SN-38 (NSC673596), staurosporine (NSC755774), SY5609 (NSC837396), and tovorafenib (DAY101, NSC766906), were obtained from the National Cancer Institute (NCI) Developmental Therapeutics Program Chemical Repository. The FDA-approved anticancer drug set is available from the NCI Developmental Therapeutics Program. […] The stock solutions were prepared in dimethyl sulfoxide (DMSO, Sigma-Aldrich, St. Louis, MO, cat. D2650) at 800-fold the tested concentration and stored at -70 degrees C prior to their use. All drugs and investigational agents were tested over a range starting from a high concentration at or near the clinical Cmax and decreasing in half-log increments. If the clinical Cmax for an agent had not been determined, the highest concentration tested was 10 microM.
Cell Culture. All cells were maintained in an incubator at 37 degrees C and 5% CO2 with 95% humidity. The PDC lines were cultured according to standard operating procedures established by the NCI PDMR. All PDCs were thawed and cultured in Matrigel-coated flasks prepared with a working solution of 1X Ham's F-12 nutrient mix, without supplementation (Invitrogen, Waltham, MA, cat. 11765054), 100 U/mL penicillin-streptomycin (Invitrogen, cat. 15140122), and 2.5% Matrigel (Corning Inc., Corning, NY, cat. 354248) for the first three passages. The 362531-283-R-J2-PDC and 782815-120-R-J1-PDC lines were cultured in 6C/Colon 1B media, which includes advanced DMEM/F-12 (Thermo Fisher Scientific, cat. 12634028), 10 mM HEPES (Thermo Fisher Scientific, cat. 15630080), 1X GlutaMAX supplement (Thermo Fisher Scientific, cat. 35050061), 0.1 mg/mL primocin (InvivoGen, San Diego, CA, cat. ant-pm-2), 10% defined fetal bovine serum, heat inactivated (HyClone Laboratories Inc., Logan, UT, cat. SH30070.03HI), 50% L-WRN conditioned media (ATCC, cat. CRL-3276), 1.25 mM N-Acetyl-L-cysteine (Sigma-Aldrich, cat. A9165), 10 mM nicotinamide (Sigma-Aldrich, cat. N0636), 1X B-27 supplement (Thermo Fisher Scientific, cat. 17504044), 1X N-2 supplement (Thermo Fisher Scientific, cat. 17502048), 50 ng/mL human EGF (Thermo Fisher Scientific, cat. PHG0311), and 10 microM Y-27632 dihydrochloride (Tocris Bioscience, cat. 1254). The K12877-001-R-J1-PDC line was cultured in 6I media, which includes all 6C/Colon 1B media plus 10 ng/mL human FGF-10 (PeproTech, cat. 100-26), 1 ng/mL human FGF-2 (PeproTech, cat. 100-18B), 1 µM prostaglandin E2 (Tocris Bioscience, cat. 2296), […] hydrocortisone (Sigma-Aldrich, cat. H4001), and […] bovine insulin (Sigma-Aldrich, cat. I6634). The K86415-001-R-J1-PDC line was cultured in 6D media, which includes all 6C/Colon 1B media components minus the L-WRN conditioned media. The 485176-168-R4-J1-PDC was cultured in PANC media, which includes all 6C/Colon 1B media plus 100 ng/mL human FGF-10 (PeproTech, cat. 100-26), 500 nM SB-431542 (Selleckchem, cat. S1067), and 10 nM gastrin (Tocris Bioscience, cat. 3006). […]
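Note: viability read after seven days of drug exposure.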
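Throughout, for viability, T/C: 100% = DMSO vehicle control viability.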

`CC(C)NCC(C(=O)N1CCN(c2ncnc3c2C(C)CC3O)CC1)c1ccc(Cl)cc1` (configuration not stated) + C#Cc1c(F)ccc2cc(O)cc(-c3ncc4c(N5CC6CCC(C5)N6)nc(OCC56CCCN5CC(F)C6)nc4c3F)c12 was tested, and the IC50 (second compound 0.0316 µM) was > 10 µM, the IC50 (second compound 0.1 µM) was > 10 µM and the IC50 (second compound 0.316 µM) was > 10 µM. For the same compound, the IC50 (second compound 1 µM) was > 10 µM, the IC50 (second compound 3.16 µM) was 0.773 µM and the IC50 (second compound 10 µM) was < 0.0316 µM. The viability, T/C (second compound 0.0316 µM, first compound 0.0316 µM) was 111%, the viability, T/C (second compound 0.0316 µM, first compound 0.1 µM) was 92.8% and the viability, T/C (second compound 0.0316 µM, first compound 0.316 µM) was 89.6%. The viability, T/C (second compound 0.0316 µM, first compound 1 µM) was 84%, the viability, T/C (second compound 0.0316 µM, first compound 3.16 µM) was 89.6% and the viability, T/C (second compound 0.0316 µM, first compound 10 µM) was 103%. The viability, T/C (second compound 0.1 µM, first compound 0.0316 µM) was 92.6%, the viability, T/C (second compound 0.1 µM, first compound 0.1 µM) was 78.7% and the viability, T/C (second compound 0.1 µM, first compound 0.316 µM) was 83.7%. The viability, T/C (second compound 0.1 µM, first compound 1 µM) was 71%, the viability, T/C (second compound 0.1 µM, first compound 3.16 µM) was 94.8% and the viability, T/C (second compound 0.1 µM, first compound 10 µM) was 92.3%. The viability, T/C (second compound 0.316 µM, first compound 0.0316 µM) was 83.7%, the viability, T/C (second compound 0.316 µM, first compound 0.1 µM) was 85.8% and the viability, T/C (second compound 0.316 µM, first compound 0.316 µM) was 82.7%. For the same compound, the viability, T/C (second compound 0.316 µM, first compound 1 µM) was 73.3%, the viability, T/C (second compound 0.316 µM, first compound 3.16 µM) was 76.6% and the viability, T/C (second compound 0.316 µM, first compound 10 µM) was 82.2%. It also gave a viability, T/C (second compound 1 µM, first compound 0.0316 µM) of 66.2%, a viability, T/C (second compound 1 µM, first compound 0.1 µM) of 60.2% and a viability, T/C (second compound 1 µM, first compound 0.316 µM) of 60.3%. For the same compound, the viability, T/C (second compound 1 µM, first compound 1 µM) was 60.9%, the viability, T/C (second compound 1 µM, first compound 3.16 µM) was 67.2% and the viability, T/C (second compound 1 µM, first compound 10 µM) was 60.3%. The viability, T/C (second compound 3.16 µM, first compound 0.0316 µM) was 59.6%, the viability, T/C (second compound 3.16 µM, first compound 0.1 µM) was 65.5% and the viability, T/C (second compound 3.16 µM, first compound 0.316 µM) was 48.7%. It also gave a viability, T/C (second compound 3.16 µM, first compound 1 µM) of 46.3%, a viability, T/C (second compound 3.16 µM, first compound 3.16 µM) of 48.5% and a viability, T/C (second compound 3.16 µM, first compound 10 µM) of 39.2%. The viability, T/C (second compound 10 µM, first compound 0.0316 µM) was 33.6%, the viability, T/C (second compound 10 µM, first compound 0.1 µM) was 44.1% and the viability, T/C (second compound 10 µM, first compound 0.316 µM) was 34.4%. For the same compound, the viability, T/C (second compound 10 µM, first compound 1 µM) was 32.3%, the viability, T/C (second compound 10 µM, first compound 3.16 µM) was 26.1% and the viability, T/C (second compound 10 µM, first compound 10 µM) was 18.7%.

— PubChem BioAssay AID2060888 (Molecular Pharmacology Branch, DTP, NCI, 2025)
